Test results: patent US20100041089A1, “IMPROVED METHOD FOR DETECTING CHEMICAL […]” (priority 2006, published 2010)

System: yeast genes (expressed mRNA)
Test: DNA chip measurement of expressed mRNA of yeast genes after culture with a toxic chemical substance
Assay type: cell-based, Saccharomyces cerevisiae S288C
Summary of the method: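 Fluorescence ratio, treated over untreated, read by chip scanner; ratio of two or more counted significant. Cells: S288C yeast, YPD, 25° C, chemical added at log phase for 2 h at growth-inhibiting, sublethal level. Cy3/Cy5-labeled cDNA from oligo-dT-purified mRNA.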

Measured: The level of expressed mRNA in the presence of chemical substance/The level of expressed mRNA in the absence of chemical substance

CCCCCCCCCCCCOS(=O)(=O)[O-].[Na+] [(18), Sodium lauryl sulfate]
6.4: yeast gene YMR316W, cultured two hours with substance
2.2: yeast gene YOL150C, cultured two hours with substance
5.5: yeast gene YML128C, cultured two hours with substance
8.1: yeast gene YMR107W, cultured two hours with substance
4.3: yeast gene YGR035C, cultured two hours with substance
0.8: yeast gene YER106W, cultured two hours with substance | yeast gene YFL006W, cultured two hours with substance | yeast gene YFL024C, cultured two hours with substance | yeast gene YFL032W, cultured two hours with substance | yeast gene YJL186W, cultured two hours with substance | yeast gene YNL190W, cultured two hours with substance | yeast gene YNL300W, cultured two hours with substance | yeast gene YOR248W, cultured two hours with substance
1.5: yeast gene YDR511W, cultured two hours with substance | yeast gene YJL057C, cultured two hours with substance | yeast gene YJL066C, cultured two hours with substance | yeast gene YOR197W, cultured two hours with substance | yeast gene YPL052W, cultured two hours with substance | yeast gene YPR079W, cultured two hours with substance
1.6: yeast gene YAL053W, cultured two hours with substance | yeast gene YER079W, cultured two hours with substance | yeast gene YFL010C, cultured two hours with substance | yeast gene YGR130C, cultured two hours with substance | yeast gene YIL087C, cultured two hours with substance | yeast gene YKL195W, cultured two hours with substance | yeast gene YNL092W, cultured two hours with substance | yeast gene YNL305C, cultured two hours with substance
2.5: yeast gene YAR031W, cultured two hours with substance | yeast gene YDR031W, cultured two hours with substance | yeast gene YLL056C, cultured two hours with substance | yeast gene YMR009W, cultured two hours with substance | yeast gene YOL082W, cultured two hours with substance
3.9: yeast gene YOR289W, cultured two hours with substance
8.5: yeast gene YGR213C
1.2: yeast gene YBL057C, cultured two hours with substance | yeast gene YCR015C, cultured two hours with the chemical substance | yeast gene YDR018C, cultured two hours with substance | yeast gene YDR350C, cultured two hours with substance | yeast gene YDR482C, cultured two hours with substance | yeast gene YDR531W, cultured two hours with substance | yeast gene YER004W, cultured two hours with substance | yeast gene YER158C, cultured two hours with substance | yeast gene YER163C, cultured two hours with substance | yeast gene YER175C, cultured two hours with substance | yeast gene YFR046C, cultured two hours with substance | yeast gene YGL047W, cultured two hours with substance | yeast gene YGR026W, cultured two hours with the chemical substance | yeast gene YGR154C, cultured two hours with substance | yeast gene YJL149W, cultured two hours with substance | yeast gene YKL034W, cultured two hours with substance | yeast gene YLR031W, cultured two hours with substance | yeast gene YLR324W, cultured two hours with substance | yeast gene YOL073C, cultured two hours with the chemical substance | yeast gene YOR161C, cultured two hours with the chemical substance | yeast gene YPL272C, cultured two hours with the chemical substance | yeast gene YPR127W, cultured two hours with substance
1.7: yeast gene YDR486C, cultured two hours with substance | yeast gene YJL152W, cultured two hours with substance | yeast gene YMR180C, cultured two hours with substance
3.5: yeast gene YGL121C, cultured two hours with substance
1.8: yeast gene YKL151C, cultured two hours with substance | yeast gene YLR152C, cultured two hours with substance | yeast gene YMR097C, cultured two hours with substance | yeast gene YOL032W, cultured two hours with substance
4.4: yeast gene YDL110C, cultured two hours with substance
3.4: yeast gene YMR295C, cultured two hours with substance | yeast gene YNL044W, cultured two hours with substance
5.3: yeast gene YLR327C
3.8: yeast gene YOR173W, cultured two hours with substance
1.9: yeast gene YNL156C, cultured two hours with substance | yeast gene YNR064C, cultured two hours with substance | yeast gene YPL206C, cultured two hours with substance
2.1: yeast gene YAR028W, cultured two hours with substance | yeast gene YER035W, cultured two hours with substance | yeast gene YGR110W, cultured two hours with substance | yeast gene YHR029C, cultured two hours with substance | yeast gene YJL161W, cultured two hours with substance | yeast gene YMR191W, cultured two hours with substance
3.7: yeast gene YGL053W, cultured two hours with substance
2.9: yeast gene YJL171C, cultured two hours with substance
3.1: yeast gene YDR070C, cultured two hours with substance | yeast gene YGR244C, cultured for two hours with substance
0.9: yeast gene YDR545W, cultured two hours with substance | yeast gene YHR199C, cultured two hours with substance | yeast gene YJL108C, cultured two hours with substance | yeast gene YJR054W, cultured two hours with substance | yeast gene YKL071W, cultured two hours with substance | yeast gene YLR194C, cultured two hours with substance | yeast gene YNL281W, cultured two hours with substance | yeast gene YOL036W, cultured two hours with substance | yeast gene YOL131W, cultured two hours with substance | yeast gene YOL162W, cultured two hours with substance | yeast gene YPL222W, cultured two hours with substance
7.1: yeast gene YHR138C, cultured two hours with substance
3.2: yeast gene YOL083W, cultured two hours with substance
2.7: yeast gene YDL204W, cultured two hours with substance | yeast gene YJR008W, cultured two hours with substance | yeast gene YPL087W, cultured two hours with substance
5.4: yeast gene YLR046C (detoxification protein gene)
4.1: yeast gene YGL006W (transport facilitation protein gene)
7.8: yeast gene YLR346C, cultured two hours with substance
4.0: yeast gene YJL166W, mitochondria-located protein gene, cultured two hours with substance
3.0: yeast gene YLR149C, cultured two hours with substance
6.8: yeast gene YNL211C, cultured two hours with substance
4.2: yeast gene YCL035C (detoxification protein gene) | yeast gene YCL035C (stress protein genes) | yeast gene YGR008C, cultured for two hours with substance
8.8: yeast gene YFL014W, DNA repair protein genes, cultured two hours with substance
1.3: yeast gene YDL222C, cultured two hours with substance | yeast gene YDR330W, cultured two hours with substance | yeast gene YDR411C, cultured two hours with substance | yeast gene YEL001C, cultured two hours with substance | yeast gene YGR221C, cultured two hours with substance | yeast gene YKL153W, cultured two hours with substance | yeast gene YKR091W, cultured two hours with substance | yeast gene YML117W, cultured two hours with substance | yeast gene YNL074C, cultured two hours with substance
1.1: yeast gene YGL136C, cultured two hours with substance | yeast gene YGR101W, cultured two hours with substance | yeast gene YIL041W, cultured two hours with substance | yeast gene YLR054C, cultured two hours with substance | yeast gene YLR350W, cultured two hours with substance | yeast gene YLR460C, cultured two hours with substance | yeast gene YPR023C, cultured two hours with substance
0.3: yeast gene YJL082W, cultured two hours with substance
4.9: yeast gene YLR008C, cultured two hours with substance
2.4: yeast gene YDR391C, cultured two hours with substance | yeast gene YJL151C, cultured two hours with substance
2.8: yeast gene YDL072C, cultured two hours with substance | yeast gene YMR090W, cultured two hours with substance | yeast gene YMR102C, cultured two hours with substance | yeast gene YOR019W, cultured two hours with substance
2.0: yeast gene YMR184W, cultured two hours with substance | yeast gene YOL071W, cultured two hours with substance
2.3: yeast gene YPL196W, cultured two hours with substance
4.6: yeast gene YBR005W, cultured two hours with the substance
1.0: yeast gene YBL048W, cultured two hours with substance | yeast gene YGL199C, cultured two hours with substance | yeast gene YIL023C, cultured two hours with substance | yeast gene YIL024C, cultured two hours with substance | yeast gene YKL086W, cultured two hours with substance | yeast gene YMR067C, cultured two hours with substance | yeast gene YMR095C, cultured two hours with substance | yeast gene YNL208W, cultured two hours with substance | yeast gene YNL234W, cultured two hours with substance | yeast gene YNR068C, cultured two hours with substance | yeast gene YOL047C, cultured two hours with substance
3.3: yeast gene YKR049C, cultured two hours with substance
1.4: yeast gene YBL107C, cultured two hours with substance | yeast gene YER038C, cultured two hours with substance | yeast gene YLR387C, cultured two hours with substance | yeast gene YOL117W, cultured two hours with substance | yeast gene YPR151C, cultured two hours with substance
2.6: yeast gene YGL037C, cultured two hours with substance | yeast gene YIL117C, cultured two hours with substance | yeast gene YNL115C, cultured two hours with substance
